Where a SMILES comes first, the peptide text is derived from it. [ ]: non-standard residue; d: D form.
How the values were obtained:
TRIB3 protein = biological target: T1, TRIB3 protein (Homo sapiens, UniProt Q96RU7); assay: SPR kinetic interaction of α-helical peptides (CM1-CM4) with TRIB3; type: binding
T1 construct: GST; purchased Sinobiological Inc. 10731-H09B
T1 sequence (Q96RU7 1-358): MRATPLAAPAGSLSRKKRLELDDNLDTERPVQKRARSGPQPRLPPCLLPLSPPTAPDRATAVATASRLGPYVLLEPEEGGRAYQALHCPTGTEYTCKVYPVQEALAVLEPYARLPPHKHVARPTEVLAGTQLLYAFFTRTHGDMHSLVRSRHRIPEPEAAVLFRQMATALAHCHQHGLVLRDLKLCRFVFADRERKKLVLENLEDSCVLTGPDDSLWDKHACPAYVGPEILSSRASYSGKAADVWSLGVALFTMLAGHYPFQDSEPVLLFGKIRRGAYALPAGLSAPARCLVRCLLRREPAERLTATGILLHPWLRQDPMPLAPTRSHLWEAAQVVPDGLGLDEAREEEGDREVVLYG
Method: (§1) Binding kinetics between MYC and UBE3B, TRIB3 and the indicated α helical peptides, MAX and the indicated α helical peptides, or MYC and MAX were analyzed using a BIAcore T200 instrument (GE Healthcare, CA, USA) as described previously. Briefly, binding reactions were performed in HBS-EP buffer (GE Healthcare) at pH 7.4. TRIB3/MYC/MAX protein was coated on the flow cell of a CM5 sensor chip by direct immobilization. Another flow cell, not coated with an immobilized protein, was used to evaluate nonspecific binding. The binding analyses were performed at a flow rate of 25 μl/min at 25 °C. A total of 0–200 nM peptide or 0–500 nM TRIB3 protein was passed over the surface of the sensor chip. The association rate constant (Ka) and the dissociation rate constant (Kd) were calculated according to the BIA evaluation software. The dissociation constant (KD) was determined by Kd/Ka.

MAX protein = assay: SPR kinetic interaction of α-helical peptides (CM1-CM4) with MAX; type: binding; settings: result in words
Method: as §1

TRIB3 and MYC = assay: SPR kinetic interaction of TRIB3 and MYC proteins with or without CM4; type: binding; settings: in vitro, result in words
Method: as §1

MAX and MYC = assay: SPR kinetic interaction of MAX and MYC proteins with indicated peptides (CM1-CM4); type: binding; settings: result in words
Method: as §1

[1] = tested on: MYC polyubiquitination by UBE3B; assay: In vitro ubiquitination assay of MYC (UBE3B, UBCH3); type: biochemical; settings: result in words
Method: In vitro ubiquitination was performed according to the protocol provided with the Ubiquitination Kit (UW9920, BioMol) with some modifications. Briefly, MYC-His, UBE3B-His, UBE3B-(R346Q)-His, UBE3B-(C1036A)-His, and UBE3B-C-His were expressed in free-style 293 cells and purified by a Ni2+-NTA resin (GE). The assays were carried out at 37 °C in a 50-μl reaction mixture containing 20 U/ml inorganic pyrophosphatase (Sigma Aldrich), 5 mM dithiothreitol, 5 mM Mg-ATP, 100 nM E1, […], […], […], and […]. […] To obtain accurate results, the PAGE gel was run for a relatively long time until protein bands smaller than 40 kDa ran off the bottom line of the gel as judged by the protein molecular weight marker. Then, the protein was transferred to a polyvinylidene difluoride membrane (PVDF). To reduce the background noise, an anti-MYC antibody (Cell Signaling Technology, 1:1000) was used to detect MYC polyubiquitination via western blot analysis instead of the HRP-Streptavidin detection system recommended by the kit for the detection of biotinylated ubiquitin.

MYC and UBE3B = assay: In vitro coimmunoprecipitation of purified MYC, UBE3B and TRIB3 with or without CM4; type: binding; settings: purified His-MYC, His-UBE3B and GST-TRIB3 with or without CM4; result in words
Method: Co-IP experiments were performed as described in the section of immunoprecipitation.

MYC and MAX = assay: Duolink PLA of MYC and MAX colocalization in Raji cells; type: cell-based, human; settings: peptide 4 µM 12 hr, MG132 20 μM 6 hr, result in words
Method: A total of 1 × 10^6 cells were seeded overnight in a six-well plate. The next day, cells were collected, fixed in 4% paraformaldehyde solution, permeabilized with 0.5% Triton-X100, blocked with Duolink® Blocking Solution, and probed with antibodies directed against MYC (R&D, NB600-302, 1:100), TRIB3 (Novus, H00057761-M03, 1:100), UBE3B (Invitrogen, PA5-59390, 1:100), and MAX (Cell Signaling Technology, #4739, 1:100). The cells were then treated with the Duolink In Situ Red Starter Mouse/Rabbit kit (Sigma Aldrich, DUO92101-1KT) according to the manufacturer’s instructions. Images were captured with an OLYMPUS confocal microscope.

CC(C)C[C@@H](NC(=O)[C@@H](CCC(N)=O)NC(=O)[C@@H](CCC(=O)O)NC(=O)[C@@H](CC(C)C)NC(=O)[C@@H](CCCCN)NC(=O)[C@@H](Cc1c[nH]cn1)NC(=O)[C@@H](CCCCN)NC(=O)[C@@H](CC(C)C)NC(=O)[C@@H](CCC(N)=O)NC(=O)[C@@H](CCC(=O)O)NC(=O)[C@@H](CCCNC(=N)N)NC(=O)[C@@H](CCCNC(=N)N)NC(=O)[C@H](N)CCCCN)C(=O)N[C@H](CCCNC(=N)N)C(=O)O [CM4] (H-[dK][dR][dR][dE][dQ][dL][dK][dH][dK][dL][dE][dQ][dL][dR]-OH; N-terminus and C-terminus assumed)
Kd (TRIB3 protein; BIAcore T200, HBS-EP pH 7.4, 25 °C, printed in Fig. 6a): 76.4 nM
kon (TRIB3 protein; BIAcore T200, HBS-EP pH 7.4, 25 °C, printed in Fig. 6a, read-out: ka): 1.01e+06 M⁻¹ s⁻¹
binding affinity for TRIB3 (TRIB3 protein; result in words): high binding affinity
ability to bind MAX (MAX protein): not
effect on the binding affinity of TRIB3 and MYC (TRIB3 and MYC): decreased the binding affinity of TRIB3 and MYC
effect on the binding of MYC and MAX (MAX and MYC): not
polyubiquitination of MYC in vitro [1]: restored the polyubiquitination of MYC
binding of MYC and UBE3B in vitro (MYC and UBE3B): increased the binding of MYC and UBE3B
colocalization of MYC and MAX in MG132-treated Raji cells (MYC and MAX): did not affect the colocalization of MYC and MAX
